Measurements as given in US20240208992A1, “MACROCYCLES AS CFTR MODULATORS” (Idorsia Pharmaceuticals Ltd, priority 2021, published 2024).

Biological target: human F508del-CFTR (Homo sapiens, UniProt P13569, DEL508-508)
Assay: F508del-CFTR cell surface expression (corrector activity), DiscoveRx ß-galactosidase complementation chemiluminescence assay in recombinant U2OS cell line;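 also: U2OS cells co-expressing ProLink-tagged F508del-CFTR and a membrane-anchored enzyme acceptor, where more surface CFTR restores β-galactosidase activity measured by chemiluminescence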
Conditions: U2OS cell line, 16h compound incubation; for EC50: EC50, F508del-CFTR cell surface expression, geomean values; for Emax: U2OS, in relation to the Emax of the corrector lumacaftor (=100%), arithmetic mean values

Chain of human F508del-CFTR (P13569 with tags, fused parts or gaps DEL508-508): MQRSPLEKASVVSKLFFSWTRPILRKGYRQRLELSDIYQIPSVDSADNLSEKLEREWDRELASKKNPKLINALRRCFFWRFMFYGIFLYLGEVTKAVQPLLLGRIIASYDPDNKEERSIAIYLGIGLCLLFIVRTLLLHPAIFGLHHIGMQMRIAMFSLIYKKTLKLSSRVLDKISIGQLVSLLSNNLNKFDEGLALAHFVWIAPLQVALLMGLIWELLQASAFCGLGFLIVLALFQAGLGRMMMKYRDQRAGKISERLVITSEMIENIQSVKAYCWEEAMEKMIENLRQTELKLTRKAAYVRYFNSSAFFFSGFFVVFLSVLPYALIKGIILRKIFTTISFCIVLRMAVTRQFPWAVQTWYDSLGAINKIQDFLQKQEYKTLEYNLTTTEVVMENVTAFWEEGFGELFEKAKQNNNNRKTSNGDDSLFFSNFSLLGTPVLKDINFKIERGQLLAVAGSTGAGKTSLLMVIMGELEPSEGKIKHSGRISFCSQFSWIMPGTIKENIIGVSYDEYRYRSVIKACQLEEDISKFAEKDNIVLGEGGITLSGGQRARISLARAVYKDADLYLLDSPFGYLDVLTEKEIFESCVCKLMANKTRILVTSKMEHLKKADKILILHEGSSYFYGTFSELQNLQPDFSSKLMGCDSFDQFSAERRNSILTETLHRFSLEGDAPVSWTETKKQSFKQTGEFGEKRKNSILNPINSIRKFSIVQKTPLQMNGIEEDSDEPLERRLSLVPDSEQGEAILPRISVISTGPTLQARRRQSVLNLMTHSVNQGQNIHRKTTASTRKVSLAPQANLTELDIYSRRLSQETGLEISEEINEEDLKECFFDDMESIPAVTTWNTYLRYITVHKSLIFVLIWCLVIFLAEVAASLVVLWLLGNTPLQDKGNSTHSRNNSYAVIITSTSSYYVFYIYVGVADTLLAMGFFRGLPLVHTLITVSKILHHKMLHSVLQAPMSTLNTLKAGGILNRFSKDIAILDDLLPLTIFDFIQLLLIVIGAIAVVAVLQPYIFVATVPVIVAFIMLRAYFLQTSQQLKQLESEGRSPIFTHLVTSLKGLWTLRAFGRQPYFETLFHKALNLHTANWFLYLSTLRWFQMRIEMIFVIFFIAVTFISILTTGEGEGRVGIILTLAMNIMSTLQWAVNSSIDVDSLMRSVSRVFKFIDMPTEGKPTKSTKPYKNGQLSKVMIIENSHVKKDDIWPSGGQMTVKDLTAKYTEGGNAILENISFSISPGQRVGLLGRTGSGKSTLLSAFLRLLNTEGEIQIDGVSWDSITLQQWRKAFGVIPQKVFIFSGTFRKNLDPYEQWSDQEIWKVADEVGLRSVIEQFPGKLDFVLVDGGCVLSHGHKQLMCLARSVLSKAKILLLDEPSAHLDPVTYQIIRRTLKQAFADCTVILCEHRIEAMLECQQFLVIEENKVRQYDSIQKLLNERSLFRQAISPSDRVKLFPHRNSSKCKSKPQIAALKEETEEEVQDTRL

| Structure (SMILES) | EC50 | Emax |
| --- | --- | --- |
| CC(C)C[C@H]1C(=O)N2CCCC[C@@H]2C(=O)N[C@H](Cc2ccccc2)COc2ccc3ncn(C)c3c2C(=O)N[C@H](C(=O)NCCc2cccc(OC(F)F)c2)CC(=O)N1C (racemic) [Example 26, (8RS,12S,18aR,21R)-21-benzyl-N-(3-(difluoromethoxy)phenethyl)-12-isobutyl-5,11-dimethyl-6,10,13,19-tetraoxo-6,7,8,9,10,11,12,13,16,17,18,18a,19,20,21,22-hexadecahydro-5H,15H-imidazo[4′,5′:5,6]benzo[1,2-p]pyrido[2,1-f][1]oxa[4,7,10,14]tetraazacycloheptadecine-8-carboxamide] | 299 nM | 111% |
| CC(C)C[C@H]1C(=O)N2CCCC[C@@H]2C(=O)N[C@H](Cc2ccccc2)COc2ccc3ncn(C)c3c2C(=O)N[C@H](C(=O)NCCc2ccccc2)CC(=O)N1C (racemic) [Example 27, (8RS,12S,18aR,21R)-21-benzyl-12-isobutyl-5,11-dimethyl-6,10,13,19-tetraoxo-N-phenethyl-6,7,8,9,10,11,12,13,16,17,18,18a,19,20,21,22-hexadecahydro-5H,15H-imidazo[4′,5′:5,6]benzo[1,2-p]pyrido[2,1-f][1]oxa[4,7,10,14]tetraazacycloheptadecine-8-carboxamide] | 474 nM | 114% |
| CC(C)C[C@H]1C(=O)N2CCCC[C@@H]2C(=O)N[C@H](Cc2ccccc2)COc2ccc3ncn(C)c3c2C(=O)N[C@H](C(=O)NCCc2cccc(-n3nccn3)c2)CC(=O)N1C (racemic) [Example 28, (8RS,12S,18aR,21R)-N-(3-(2H-1,2,3-triazol-2-yl)phenethyl)-21-benzyl-12-isobutyl-5,11-dimethyl-6,10,13,19-tetraoxo-6,7,8,9,10,11,12,13,16,17,18,18a,19,20,21,22-hexadecahydro-5H,15H-imidazo[4′,5′:5,6]benzo[1,2-p]pyrido[2,1-f][1]oxa[4,7,10,14]tetraazacycloheptadecine-8-carboxamide] |  | 106% |
| COc1cccc(CCNC(=O)[C@@H]2CC(=O)N(C)[C@@H](CC(C)C)C(=O)N(C)CC(=O)N[C@H](Cc3ccccc3)COc3cc4c(cc3C(=O)N2)OCO4)c1OC (racemic) [Example 151, (7R,13S,17RS)-7-benzyl-N-(2,3-dimethoxyphenethyl)-13-isobutyl-11,14-dimethyl-9,12,15,19-tetraoxo-6,7,8,9,10,11,12,13,14,15,16,17,18,19-tetradecahydro-[1,3]dioxolo[4′,5′:4,5]benzo[1,2-p][1]oxa[4,7,10,14]tetraazacycloheptadecine-17-carboxamide] |  | 106% |
| COc1cc2c(cc1OC)C(=O)N[C@H](C(=O)NCCc1ccc3c(c1)CCO3)CC(=O)N(C)[C@@H](CC(C)C)C(=O)N(C)CC(=O)N[C@H](Cc1ccccc1)CO2 (racemic) [Example 152, (3R,9S,13RS)-3-benzyl-N-(2-(2,3-dihydrobenzofuran-5-yl)ethyl)-9-isobutyl-17,18-dimethoxy-7,10-dimethyl-5,8,11,15-tetraoxo-2,3,4,5,6,7,8,9,10,11,12,13,14,15-tetradecahydrobenzo[p][1]oxa[4,7,10,14]tetraazacycloheptadecine-13-carboxamide] |  | 133% |
| COc1cc2c(cc1OC)C(=O)N[C@H](C(=O)NCCc1ccc3c(c1)OCO3)CC(=O)N(C)[C@@H](CC(C)C)C(=O)N(CC[C@H]1CCCCO1)CC(=O)N[C@H](Cc1ccccc1)CO2 (racemic) [Example 155, (3R,9S,13S)-N-(2-(benzo[d][1,3]dioxol-5-yl)ethyl)-3-benzyl-9-isobutyl-17,18-dimethoxy-10-methyl-5,8,11,15-tetraoxo-7-(2-((RS)-tetrahydro-2H-pyran-2-yl)ethyl)-2,3,4,5,6,7,8,9,10,11,12,13,14,15-tetradecahydrobenzo[p][1]oxa[4,7,10,14]tetraazacycloheptadecine-13-carboxamide] | 260 nM | 144% |
| COc1cccc2c1C(=O)N[C@H](C(=O)NCCC1CCC(C)(C)CO1)CC(=O)N(C)[C@@H](CC(C)C)C(=O)N(CCC1CCCCC1)CC(=O)N[C@H](Cc1ccccc1)CO2 (mixture of isomers) [Example 157, (3R,9S,13S)-3-benzyl-7-(2-cyclohexylethyl)-N-((RS)-2-(5,5-dimethyltetrahydro-2H-pyran-2-yl)ethyl)-9-isobutyl-16-methoxy-10-methyl-5,8,11,15-tetraoxo-2,3,4,5,6,7,8,9,10,11,12,13,14,15-tetradecahydrobenzo[p][1]oxa[4,7,10,14]tetraazacycloheptadecine-13-carboxamide] | 395 nM | 121% |
| CC(C)C[C@H]1C(=O)N(C[C@H]2CCCCO2)CC(=O)N[C@H](Cc2ccccc2)COc2ccc3ccccc3c2C(=O)N[C@H](C(=O)NCCc2ccc3c(c2)OCO3)CC(=O)N1C (racemic) [Example 162, (3RS,7S,13R)-N-(2-(benzo[d][1,3]dioxol-5-yl)ethyl)-13-benzyl-7-isobutyl-6-methyl-1,5,8,11-tetraoxo-9-(((R)-tetrahydro-2H-pyran-2-yl)methyl)-1,2,3,4,5,6,7,8,9,10,11,12,13,14-tetradecahydronaphtho[1,2-p][1]oxa[4,7,10,14]tetraazacycloheptadecine-3-carboxamide] |  | 132% |
| CC(C)C[C@H]1C(=O)N(C[C@@H]2CCCCO2)CC(=O)N[C@H](Cc2ccccc2)COc2ccc3ccccc3c2C(=O)N[C@H](C(=O)NCCc2ccc3c(c2)OCO3)CC(=O)N1C (racemic) [Example 163, (3RS,7S,13R)-N-(2-(benzo[d][1,3]dioxol-5-yl)ethyl)-13-benzyl-7-isobutyl-6-methyl-1,5,8,11-tetraoxo-9-(((S)-tetrahydro-2H-pyran-2-yl)methyl)-1,2,3,4,5,6,7,8,9,10,11,12,13,14-tetradecahydronaphtho[1,2-p][1]oxa[4,7,10,14]tetraazacycloheptadecine-3-carboxamide] | 377 nM | 185% |
| COc1cccc(CCNC(=O)[C@@H]2CC(=O)N(C)[C@@H](CC(C)C)C(=O)N(C[C@H]3CCCCO3)CC(=O)N[C@H](Cc3ccccc3)COc3ccc4ccccc4c3C(=O)N2)c1 (racemic) [Example 164, (3RS,7S,13R)-13-benzyl-7-isobutyl-N-(3-methoxyphenethyl)-6-methyl-1,5,8,11-tetraoxo-9-(((R)-tetrahydro-2H-pyran-2-yl)methyl)-1,2,3,4,5,6,7,8,9,10,11,12,13,14-tetradecahydronaphtho[1,2-p][1]oxa[4,7,10,14]tetraazacycloheptadecine-3-carboxamide] |  | 167% |
| COc1cccc(CCNC(=O)[C@@H]2CC(=O)N(C)[C@@H](CC(C)C)C(=O)N(C[C@@H]3CCCCO3)CC(=O)N[C@H](Cc3ccccc3)COc3ccc4ccccc4c3C(=O)N2)c1 (racemic) [Example 165, (3RS,7S,13R)-13-benzyl-7-isobutyl-N-(3-methoxyphenethyl)-6-methyl-1,5,8,11-tetraoxo-9-(((S)-tetrahydro-2H-pyran-2-yl)methyl)-1,2,3,4,5,6,7,8,9,10,11,12,13,14-tetradecahydronaphtho[1,2-p][1]oxa[4,7,10,14]tetraazacycloheptadecine-3-carboxamide] | 287 nM | 149% |
| COc1cccc2c1C(=O)N[C@H](C(=O)NCC[C@H]1CCCCO1)CC(=O)N(C)[C@@H](CC(C)C)C(=O)N(CCC1CCCCC1)CC(=O)N[C@H](Cc1ccccc1)CO2 (racemic) [Example 212, (3R,9S,13S)-3-benzyl-7-(2-cyclohexylethyl)-9-isobutyl-16-methoxy-10-methyl-5,8,11,15-tetraoxo-N-(2-((RS)-tetrahydro-2H-pyran-2-yl)ethyl)-2,3,4,5,6,7,8,9,10,11,12,13,14,15-tetradecahydrobenzo[p][1]oxa[4,7,10,14]tetraazacycloheptadecine-13-carboxamide] | 292 nM | 130% |
| COc1cccc2c1C(=O)N[C@H](C(=O)NCC[C@H]1COc3ccccc3O1)CC(=O)N(C)[C@@H](CC(C)C)C(=O)N(CCC1CCCCC1)CC(=O)N[C@H](Cc1ccccc1)CO2 (racemic) [Example 213, (3R,9S,13S)-3-benzyl-7-(2-cyclohexylethyl)-N-(2-((RS)-2,3-dihydrobenzo[b][1,4]dioxin-2-yl)ethyl)-9-isobutyl-16-methoxy-10-methyl-5,8,11,15-tetraoxo-2,3,4,5,6,7,8,9,10,11,12,13,14,15-tetradecahydrobenzo[p][1]oxa[4,7,10,14]tetraazacycloheptadecine-13-carboxamide] | 292 nM | 100% |
| COc1ccc(CCNC(=O)[C@@H]2CC(=O)N(C)[C@@H](CC(C)C)C(=O)N(CCC3CCCCC3)CC(=O)N[C@H](Cc3ccccc3)COc3cccc(OC)c3C(=O)N2)cc1 (racemic) [Example 219, (3R,9S,13RS)-3-benzyl-7-(2-cyclohexylethyl)-9-isobutyl-16-methoxy-N-(4-methoxyphenethyl)-10-methyl-5,8,11,15-tetraoxo-2,3,4,5,6,7,8,9,10,11,12,13,14,15-tetradecahydrobenzo[p][1]oxa[4,7,10,14]tetraazacycloheptadecine-13-carboxamide] | 206 nM | 182% |
| CN1C(=O)C[C@@H](C(=O)NCCc2ccc3c(c2)OCO3)NC(=O)c2c(ccc3ccccc23)OC[C@@H](Cc2ccccc2)NC(=O)CN(C[C@@H]2CCCCO2)C(=O)[C@@H]1CC1CCCC1 (racemic) [Example 284, (3RS,7S,13R)-N-(2-(benzo[d][1,3]dioxol-5-yl)ethyl)-13-benzyl-7-(cyclopentylmethyl)-6-methyl-1,5,8,11-tetraoxo-9-(((S)-tetrahydro-2H-pyran-2-yl)methyl)-1,2,3,4,5,6,7,8,9,10,11,12,13,14-tetradecahydronaphtho[1,2-p][1]oxa[4,7,10,14]tetraazacycloheptadecine-3-carboxamide] |  | 136% |
